In US9481654B2, “Compositions and methods for inhibition of the JAK pathway” (Rigel Pharmaceuticals, Inc., priority 2006, dated 2016):
Counter-ions that a name gives are not always drawn.

What was measured:
[1] = tested on: primary human T-cells (IL-2 induced proliferation, JAK-1/JAK-3, Stat-5); test: Primary Human T-Cell Proliferation Assay Stimulated with IL-2 (CellTiter-Glo); format: cell-based; conditions: Table III Example 4
Description: In this assay, primary human T-cells derived from peripheral blood and pre-activated through stimulation of the T-cell receptor and CD28, proliferate in culture in response to the cytokine Interleukin-2 (IL-2). This proliferative response is dependent on the activation of JAK1 and JAK3 tyrosine kinases, which phosphorylate and activate the transcription factor Stat-5. The primary human T-cells are incubated with the 2,4-pyrimidinediamine compounds in the presence of IL-2 for 72 hours, and at the assay endpoint intracellular ATP concentrations are measured to assess cell viability. A reduction in cell proliferation compared to control conditions is indicative of inhibition of the JAK kinase pathway.
Primary human T-cells derived from peripheral blood and pre-activated through stimulation of the T-cell receptor and CD28 proliferate in vitro in response to the cytokine Interleukin-2 (IL-2). This proliferative response is dependent on the activation of JAK-1 and JAK-3 tyrosine kinases, which phosphorylate and activate the transcription factor Stat-5.
Human primary T cells were prepared as follows. […] The lymphocytes at the serum: ficoll interface were recovered and washed twice with 5 volumes of PBS. […] The primary T-cells were stimulated for 3 to 4 days, then transferred to a fresh flask and maintained in RPMI with 10% FBS and 40 U/mL IL-2.
Primary T-cells were washed twice with PBS to remove the IL-2 and resuspended in Yssel's medium at 2×10^6 cells/mL. 50 μL of cell suspension containing 80 U/mL IL-2 was added to each well of a flat bottom 96 well black plate. For the unstimulated control, IL-2 was omitted from the last column on the plate. […] 50 μL of 2× compound was added per well in duplicate and the cells were allowed to proliferate for 72 hours at 37° C.
Proliferation was measured using CellTiter-Glo® Luminescent Cell Viability Assay (Promega), which determines the number of viable cells in culture based on quantitation of the ATP present, as an indicator of metabolically active cells. The substrate was thawed and allowed to come to room temperature. After mixing the Cell Titer-Glo reagent and diluent together, 100 μL was added to each well. The plates were mixed on an orbital shaker for two minutes to induce lysis and incubated at room temperature for an additional ten minutes to allow the signal to equilibrate.

[2] = tested on: IL-4 stimulated CD23 upregulation in human Ramos B cells (JAK-1/JAK-3, Stat-6); test: Assay for Ramos B-Cell Line Stimulated with IL-4 (CD23 upregulation, FACS); format: cell-based
How it was run: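 Flow cytometry of CD23 staining after 20-24 h IL-4 stimulation (50 units/mL final) of human Ramos B cells in RPMI with 5% serum. Cells, 5×10^4 per point, received compound or DMSO vehicle for 1 h at 37° C prior to stimulation.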

[3] = Homo sapiens, Ramos, Table III Example 3

IC50 [2, 3] [nM] | Compound | IC50 [1] [nM] | IC50 ([2]; Table III Example 3, sodium salt) [nM] | IC50 ([2]; Table III Example 3) [nM] | IC50 ([1]; Homo sapiens, T-cell) [nM]
 | Cc1cnc(Nc2cccc(S(=O)(=O)NC(=O)[C@@H](NC(=O)OCc3ccccc3)C(C)C)c2)nc1Nc1cccc(CNS(=O)(=O)C2CC2)c1 [Compound I-147, N2-[3-N-(Cbz-L-Val)aminosulfonyl]phenyl-N4-(3-cyclopropylsulfonylaminomethyl)phenyl-5-methyl-2,4-pyrimidinediamine sodium salt] | 25100 | 13800 |  | 
 | NS(=O)(=O)c1cc(Nc2ncc(F)c(Nc3ccc(CNS(=O)(=O)C4CC4)cc3)n2)cc(S(N)(=O)=O)c1 [Compound I-82, N4-(4-cyclopropylsulfonylaminomethyl)phenyl-N2-(3,5-diaminosulfonyl)phenyl-5-fluoro-2,4-pyrimidinediamine] | 964 |  | 1100 | 
 | Cc1cnc(Nc2ccc(S(=O)(=O)NCc3ccccc3)cc2)nc1Nc1cccc(CNS(=O)(=O)C2CC2)c1 [Compound I-157, N2-(4-benzylaminosulfonyl)phenyl-N4-(3-cyclopropylsulfonylaminomethyl)phenyl-5-methyl-2,4-pyrimidinediamine] | 1100 |  | 250 | 
 | Cc1cnc(Nc2cccc(S(=O)(=O)NC3CCN(C)CC3)c2)nc1Nc1ccc(CNS(=O)(=O)C2CC2)cc1 [Compound I-152, N4-(4-cyclopropylsulfonylaminomethyl)phenyl-5-methyl-N2-[3-(1-methylpiperidin-4-yl)aminosulfonyl]phenyl-2,4-pyrimidinediamine] | 717 |  | 166 | 
 | Cc1nc(N)sc1S(=O)(=O)NCc1ccc(Nc2nc(Nc3cccc(S(N)(=O)=O)c3)ncc2F)cc1 [Compound I-41, N4-[4-(2-amino-4-methylthiazol-5-yl)sulfonylaminomethyl]phenyl-N2-(3-aminosulfonyl)phenyl-5-fluoro-2,4-pyrimidinediamine] | 2120 |  | 1020 | 
 | Cc1cnc(Nc2ccc(S(=O)(=O)NC3CCN(C)CC3)cc2)nc1Nc1ccc(CNS(=O)(=O)C2CC2)cc1 [Compound I-151, N4-(4-cyclopropylsulfonylaminomethyl)phenyl-5-methyl-N2-[4-(1-methylpiperidin-4-yl)aminosulfonyl]phenyl-2,4-pyrimidinediamine] | 1080 |  | 353 | 
 | Cc1cnc(Nc2ccc(S(N)(=O)=O)cc2)nc1Nc1ccc(CNS(=O)(=O)c2cccnc2)cc1 [Compound I-99, N2-(4-aminosulfonyl)phenyl-5-methyl-N4-[4-(pyrid-3-yl)sulfonylaminomethyl]phenyl-2,4-pyrimidinediamine] | 954 |  | 565 | 
 | CC(=O)Nc1nc(C)c(S(=O)(=O)NCc2ccc(Nc3nc(Nc4cccc(S(N)(=O)=O)c4)ncc3F)cc2)s1 [Compound I-42, N4-[4-(2-acetylamino-4-methylthiazol-5-yl)sulfonylaminomethyl]phenyl-N2-(3-aminosulfonyl)phenyl-5-fluoro-2,4-pyrimidinediamine] | 3220 |  | 1150 | 
 | NS(=O)(=O)c1ccc(Nc2ncc(F)c(Nc3ccc(CNS(=O)(=O)c4cccs4)cc3)n2)cc1 [Compound I-35, N2-(4-aminosulfonyl)phenyl-5-fluoro-N4-[4-(thiophen-2-yl)sulfonylaminomethyl]phenyl-2,4-pyrimidinediamine] | 436 |  | 133 | 
 | Cc1cnc(Nc2cccc(S(=O)(=O)Nc3ccccc3)c2)nc1Nc1cccc(CNS(=O)(=O)C2CC2)c1 [Compound I-156, N4-(3-cyclopropylsulfonylaminomethyl)phenyl-5-methyl-N2-(3-phenylaminosulfonyl)phenyl-2,4-pyrimidinediamine] | 1080 |  | 266 | 
 | CC(=O)Nc1nc(C)c(S(=O)(=O)NCc2ccc(Nc3nc(Nc4ccc(C)c(S(N)(=O)=O)c4)ncc3F)cc2)s1 [Compound I-44, N4-[4-(2-acetylamino-4-methylthiazol-5-yl)sulfonylaminomethyl]phenyl-N2-(3-aminosulfonyl-4-methyl)phenyl-5-fluoro-2,4-pyrimidinediamine] | 4160 |  | 1220 | 
559 | C#CCNS(=O)(=O)Cc1ccc(Nc2nc(Nc3ccc(S(N)(=O)=O)cc3)ncc2F)cc1 [Compound I-6, N2-(4-Aminosulfonylphenyl)-5-fluoro-N4-[4-(prop-2-ynylaminosulfonylmethyl)phenyl]-2,4-pyrimidinediamine] |  |  |  | 536
 | Cc1cnc(Nc2cccc(S(=O)(=O)NC(=O)CN)c2)nc1Nc1cccc(CNS(=O)(=O)C2CC2)c1 [Compound I-133, N2-[3-N-(2-amino-1-oxoethyl)aminosulfonyl]phenyl-N4-(3-cyclopropylsulfonylaminomethyl)phenyl-5-methyl-2,4-pyrimidinediamine hydrogen chloride salt] | 1210 |  | 715 | 
647 | C#CCNS(=O)(=O)Cc1cccc(Nc2nc(Nc3ccc(S(N)(=O)=O)cc3)ncc2F)c1 [Compound I-2, N2-(4-Aminosulfonylphenyl)-5-fluoro-N4-[3-(prop-2-ynylaminosulfonylmethyl)phenyl]-2,4-pyrimidinediamine] |  |  |  | 3730
 | Cc1cnc(Nc2ccc(S(=O)(=O)Nc3cccnc3)cc2)nc1Nc1ccc(CNS(=O)(=O)C2CC2)cc1 [Compound I-171, N4-(4-cyclopropylsulfonylaminomethyl)phenyl-5-methyl-N2-[4-(3-pyridyl)aminosulfonyl]phenyl-2,4-pyrimidinediamine] | 42300 |  | 19500 | 
 | CCS(=O)(=O)NCc1ccc(Nc2nc(Nc3ccc(S(N)(=O)=O)cc3)ncc2F)cc1Cl [Compound I-74, N2-(4-aminosulfonyl)phenyl-N4-(3-chloro-4-ethylsulfonylaminomethyl)phenyl-5-fluoro-2,4-pyrimidinediamine] | 2250 |  | 362 | 
73.5 | C#CCNS(=O)(=O)c1cccc(Nc2ncc(F)c(Nc3ccc(CNS(=O)(=O)C4CC4)cc3)n2)c1 [Compound I-7, 5-Fluoro-N4-[4-(cyclopropylsulfonylaminomethyl)phenyl]-N2-[3-(prop-2-ynylaminosulfonyl)phenyl]-2,4-pyrimidinediamine] |  |  |  | 113
 | Cc1cnc(Nc2cccc(S(=O)(=O)NCc3ccccc3)c2)nc1Nc1cccc(CNS(=O)(=O)C2CC2)c1 [Compound I-158, N2-(3-benzylaminosulfonyl)phenyl-N4-(3-cyclopropylsulfonylaminomethyl)phenyl-5-methyl-2,4-pyrimidinediamine] | 531 |  | 300 | 
 | Cc1cnc(Nc2ccc(S(=O)(=O)NCc3ccccc3)cc2)nc1Nc1ccc(CNS(=O)(=O)C2CC2)cc1 [Compound I-153, N2-(4-benzylaminosulfonyl)phenyl-N4-(4-cyclopropylsulfonylaminomethyl)phenyl-5-methyl-2,4-pyrimidinediamine] | 118 |  | 80 | 
